Earlier results, collected in US20130202650A1, “TOPICAL COMPOSITION COMPRISING A COMBINATION OF AT LEAST TWO PENETRATION ENHANCING AGENTS” (Moberg Derma AB, priority 2008, published 2013).
Counter-ions that a name gives are not always drawn.

Settings: tBtOH-IPM (2:8) vehicle; mouse

Q: For `CN1[C@@H]2CC[C@H]1C[C@@H](OC(c1ccccc1)c1ccccc1)C2` [BZ mesylate, benztropine], which BZ flux from the mesylate salt is on record?
A: The BZ flux from the mesylate salt was 2020 µg/cm²/h.

Q: What about the “BZ flux, fold greater than from water” value of the same compound?
A: The value was 100 fold.

Q: What about the “BZ flux, fold greater than the individual neat solvents” value of the same compound?
A: The value was 44-540 fold.
